Laboratory results published in patent US20080254152A1, “Methods for Reducing the Effects of Stress on Skin Condition” (priority 2003, published 2008).

Key:
[1] = system: MMP-1 expression in human adult-derived dermal fibroblast cells; assay: Active MMP-1 in adult-derived human dermal fibroblasts after chronic dexamethasone and PMA; type: cell-based; conditions: for Suppression of MMP-1 synthesis vs control, untreated cells: chronic dexamethasone then 1 μM PMA, adult fibroblasts
Procedure: In this study, to understand better the effect of chronic stress on dermal matrix remodelling in the skin, we have therefore measured changes in markers of dermal matrix degradation (MMP-1) and dermal matrix synthesis (Procollagen I) in chronically glucocorticoid-treated primary human dermal fibroblasts, following acute stress with PMA. The experimental approach is similar to that described in example 1 except that the cells tested are dermal fibroblasts and cells are assayed for expression of procollagen-1, MMP-1 and MMP-9 expression.
Primary human dermal fibroblast cells were cultured and passaged in DMEM (Gibco) supplemented with 10% FBS (foetal bovine serum). Cells were routinely plated out in 6-well tissue culture dishes, at a seeding density of ˜5000 cells/cm^2 in 2 ml complete medium/well for 24 hours, and incubated at 37° C. in 5% CO2. Media was removed and cells grown in DMEM & 1% FBS, 24 hours prior to treatments.
Pre-treatment and test solutions were prepared in DMEM containing low serum (1% FBS). […] Following this, the cells were oxidatively stressed for 24 hours with 1 μM PMA (Sigma P8139).
MMP-1 and MMP-9 protein in each cell supernatant was estimated using the Human active MMP-1 and MMP-9 Fluorokine enzyme kit (R&D Systems F1M00 and F9M00, respectively), according to the manufacturer's instructions.
Six MMP-1 and MMP-9 standards were prepared in calibrator diluent at concentrations ranging from 0.39 to 12.5 ng/ml and 0.25 to 16 ng/ml, respectively. 100 μl of assay diluent and 150 μl of tissue culture supernatant or standard was added to duplicate wells. The plate was incubated at room temperature for 3 hours on a horizontal orbital plate shaker before being washed four times with wash buffer. 200 μl of APMA was added to each well and the plate incubated at 37° C. for 2 hours in a humidified environment and protected from the light. The plate was washed as before. Each well received 200 μl of substrate solution and the plate incubated at 37° C. for 17-20 hours in a humidified environment and protected from the light. The relative fluorescence unit (RFU) of each well was determined using a fluorescence plate set with 1×20 mS integration time, plate speed ˜6; excitation wavelength set to 320 nm and emission wavelength set to 405 nm.
A standard curve was plotted of mean RFU versus MMP-1 and MMP-9 concentration (respectively), and the line of best fit calculated by regression analysis. The unknown concentration of either active MMP-1 or MMP-9 protein in all of the samples was estimated from this.

[2] = system: ICAM-1 expression in HUVECs; assay: ICAM-1 expression in HUVECs pre-treated 5 days with dexamethasone, then oxidatively stressed with PMA (ELISA); type: cell-based, Human; conditions: chronic 1 μM glucocorticoid 5 days, then 1 μM PMA; HUVEC; FIG. 1
Procedure: An in vitro model has been developed to investigate the impact of chronic stress on the inflammatory status of endothelial cells. • a. Cells are grown in 6-well (9.5 cm^2) plates. • b. […] Tissue culture supernatant and cell pellets are harvested at timepoint T0. • d. The cells are oxidatively stressed with 1 μM Phorbol Myristate Acetate (PMA). • e. Tissue culture supernatant and cell pellets were harvested at 6, 24 and 48 hours (T6, T24 and T48, respectively) post-PMA treatment. • f. All tissue culture supernatant was assayed for Lactate Dehydrogenase (LDH), as a measure of cytotoxicity, and Interleukin-6 synthesis. • g. All cells were counted (Beckman Coulter Counter) and pelleted and cell lysate assayed for ICAM-1 expression (Intra Cellular Adhesion Molecule 1).
HUVEC cells (Human umbilical vein endothelial cells, TCS Biologicals) were cultured and passaged in EGM-2 (Endothelial growth medium, Biowhittaker) supplemented with heparin, VEGF (vascular endothelial growth factor), gentamicin sulphate, ascorbic acid, HEGF (Human endothelial growth factor), hydrocortisone, HFGF-B (Human fibroblast growth factor B), R3-IGF-1 (long R insulin-like growth factor 1) and FBS (foetal bovine serum).
Cells were routinely plated out in 6-well tissue culture dishes, at a seeding density of ˜5000 cells/cm^2 in 2 ml complete medium/well, 48 hours before starting the experiment, and incubated at 37° C. in 5% CO2.
Pre-treatment and test solutions were prepared in EGM-2 containing all supplements except hydrocortisone.
Following this, the cells were oxidatively stressed for 24 hours with 1 μM PMA (Sigma P8139).
Receptor antagonists were added to the cells during the pre-treatment period. These included the Glucocorticoid Receptor Antagonist; 2 μM Mifepristone (Sigma M8046) and two CRH receptor antagonists; 200 nM Astressin (Sigma A4933) and 200 nM α-helical CRF peptide antagonist (Sigma C2917).
Any change in cell morphology was noted before the cells were harvested. Both the tissue culture supernatant and the endothelial cells were harvested after the five-day pre-treatment period (T0), at 6 hours and 24 hours after addition of PMA (T6 and T24) and at 24 hours after removal of the PMA (T48). All tissue culture supernatants were stored at −20° C.
All cell pellets were lysed on ice for 30 minutes in 1 ml cell lysis buffer per 2.5×10^6 cells. The lysis buffer contained 1% NP-40, 0.1% sodium deoxycholate, 0.1% SDS, 6 mM sodium chloride and 0.05M Tris at pH 7.6. Protease inhibitor cocktail ([…]; Sigma P8340) was added prior to use at a level of 10 μl per ml of lysis buffer. The partially lysed cell pellets were completely homogenised with a pellet pestle and unwanted cell debris removed by centrifugation for 20 minutes at 20,000 g at 4° C. The clarified cell lysate was frozen at −80° C. until needed.
The total protein concentration of each cell lysate was measured using the Pierce BCA protein assay kit. A set of eight standard solutions ranging from 0 to 1200 μg/ml protein was prepared from the supplied 2 mg/ml BSA stock solution. 10 μl of standard or cell lysate was added to duplicate wells of a flat-bottomed, 96-well microtitre plate. The reagent solution was prepared according to the kit instructions from 50 parts reagent A and 1 part reagent B. 200 μl of the final reagent was added to each well of the microtitre plate. The plate was mixed, covered and incubated at 37° C. for 30 minutes and absorbance read at 562 nm.
ICAM-1 protein in each cell lysate was estimated using the Human sICAM-1 DuoSet ELISA kit (R&D Systems DY720) according to the manufacturer's instructions.
The capture antibody was diluted to a final concentration of 4 μg/ml in PBS and 100 μl was used to coat each well of a 96-well microtitre plate overnight at room temperature. The plate was then washed three times with wash buffer (0.05% Tween 20 in PBS).

## C[C@@H]1C[C@H]2[C@@H]3CCC4=CC(=O)C=C[C@]4(C)[C@@]3(F)[C@@H](O)C[C@]2(C)[C@@]1(O)C(=O)CO [Dexamethasone]
[1]; GC-treated adult fibroblasts
  Level of active MMP-1: ~25 ng/mL
[1]; T6
  Suppression of MMP-1 synthesis vs control, untreated cells: ~85%
[1]; T24
  Suppression of MMP-1 synthesis vs control, untreated cells: 10%
[1]; T48
  Suppression of MMP-1 synthesis vs control, untreated cells: 80%
[2]
  Induction of ICAM-1 synthesis after PMA, glucocorticoid pre-treated vs not pre-treated cells: significantly greater
